Data from patent US20260306640A1, “TECHNOLOGIES TARGETING CELL STATES” (Auron Therapeutics, Inc., priority 2023, published 2026).
Where two headings read alike, the source gives them in different places.

Assays:
Type in all cases: cell-based
CD86 = CD86 by flow cytometry (monocytic differentiation), MOLM-13 cells, 48 hours; conditions: FIG. 2 (C)
Protocol: FIG. 2. Provided compounds can provide various activities. (A): Provided technologies can reduce KAT2A and KAT2B levels and histone acetylation levels. […] Cell count data after 8 days of treatment with compound 22 relative to DMSO control are presented as examples to confirm inhibition. […] (C): Provided technologies can modulate cell states and induce differentiation. […] EC50=0.3 nM.

[1] = test system: histone acetylation (e.g., AcH3K9); assay: Histone H3K9 acetylation (AcH3K9), Western Blot, MOLM-13 cells; conditions: FIG. 2
Protocol: In some embodiments, an assessment is performed using cells. In some embodiments, cells were treated with various compounds before assessing KAT2A and/or KAT2B levels, histone (e.g., H3K9) acetylation levels, cell states, growth, etc.
Western Blot: In some assessments, MOLM13, NCI-H1048, LASCPC-01 and NEPC organoid cells were treated with compounds at certain concentrations for certain periods of time, and cell pellets were lysed by adding 1-part 4×laemmli Sample buffer (e.g., Bio-Rad Catalog #1610747) along with Mercaptoethanol (e.g., Bio-Rad Catalog #1610710) according to manufacturer's instructions, and 1-part RIPA buffer with 2×protease and phosphatase inhibitor. The samples were sonicated 30% amplitude, 35 seconds on and 35 seconds off for 1 cycle and boiled at 95° C. for 5 minutes. 30-35 μL of samples were loaded on a 4-15% Criterion™ TGX Stain-Free™ Protein Gel (Bio-rad, 5678084). In some assessments, NCI-H1048 flash frozen tumor pieces were resuspended in RIPA buffer and homogenized on TissueLyser II with steel beads at 30 Hz for 3 minutes. Samples were then centrifuged at […] at 4° C. for 15 minutes. BCA protein determination was performed and samples normalized for 1.95 ug/uL. 19.5 uL were loaded and run on similar gels as cell pellets. […]

MOLM-13 cells = assay: Cell growth inhibition, AML cell line MOLM-13 (CyQuant, day 7); conditions: for GI50: Homo sapiens
Excerpt: (§1) Among other things, provided technologies are useful for treating various diseases, disorders, or conditions. For example, in some embodiments, provided technologies are useful for treating cancer as confirmed in the present Example. […] In some embodiments, provided technologies can inhibit cell proliferation. In some embodiments, the present disclosure provides technologies for assessing various technologies, e.g., compounds, compositions, or methods. Among other things, the present Example provides technologies, e.g., cell growth inhibition assay, for assessing various technologies. […] In some embodiments, the following cell growth inhibition methods are utilized to assess provided technologies.
AML: AML cell line MOLM-13 cells were cultured in RPMI+15% FBS and were plated at 500 cells/well in 100 uL media in a U-bottom 96-well plate. Compounds were dilute to 3×final in full media and 50 uL were added to corresponding wells. Compound and media were replenished on days 2 and 5. On day 7, cells were transferred to a 96-well black bottom plate and CyQuant was performed per manufacturer's instructions.
In some assessments, for cell growth inhibition, cells, e.g., MOLM13, NCI-H1048, and LASCPC-01 cells, were counted using a hemocytometer or automated cell counting in triplicates. In some assessments, proliferation in NEPC organoids as measured with Cell Titer Glo reagent (Promega). Growth inhibition was determined relative to vehicle control.

KAT2B = KAT2B (Homo sapiens, UniProt Q92831); assay: Western blot of KAT2B level in NCI-H1048 cells, 24 h; parameters: degrader, Western blot; conditions: various concentrations, FIG. 1 (B)
KAT2B, sequence (Q92831 whole entry): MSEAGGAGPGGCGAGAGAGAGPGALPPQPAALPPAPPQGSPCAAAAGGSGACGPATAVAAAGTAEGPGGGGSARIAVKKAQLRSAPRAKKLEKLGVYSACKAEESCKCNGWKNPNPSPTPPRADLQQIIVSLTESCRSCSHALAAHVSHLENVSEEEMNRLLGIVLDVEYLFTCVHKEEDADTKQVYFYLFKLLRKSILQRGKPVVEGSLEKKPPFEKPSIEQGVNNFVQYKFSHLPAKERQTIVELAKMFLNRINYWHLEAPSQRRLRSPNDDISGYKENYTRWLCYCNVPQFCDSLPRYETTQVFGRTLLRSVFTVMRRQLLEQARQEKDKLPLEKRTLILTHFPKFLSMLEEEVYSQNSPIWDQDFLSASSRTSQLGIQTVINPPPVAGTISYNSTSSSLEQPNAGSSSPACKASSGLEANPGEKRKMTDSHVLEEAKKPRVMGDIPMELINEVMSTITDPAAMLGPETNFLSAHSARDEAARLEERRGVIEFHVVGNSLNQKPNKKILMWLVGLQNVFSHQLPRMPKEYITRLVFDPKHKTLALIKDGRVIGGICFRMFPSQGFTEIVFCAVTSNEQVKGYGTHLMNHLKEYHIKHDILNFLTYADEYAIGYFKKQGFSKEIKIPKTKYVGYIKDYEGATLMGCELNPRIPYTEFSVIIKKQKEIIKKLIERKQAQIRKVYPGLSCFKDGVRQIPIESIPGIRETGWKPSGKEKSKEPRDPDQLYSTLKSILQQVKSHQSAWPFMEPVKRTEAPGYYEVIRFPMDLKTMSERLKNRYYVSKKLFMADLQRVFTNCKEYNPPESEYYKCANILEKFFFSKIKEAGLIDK
Protocol: FIG. 1. Provided compounds can provide various activities including inhibiting tumor growth in vivo. (A): Provided compounds can inhibit tumor growth in vivo. Nude Balb/c mice were inoculated with NCI-H1048 cells in Matrigel. Tumors were allowed to grow up to about 200 mm^3 and mice were then randomized into two groups. Mice were dosed intraperitoneally (i.p.) once per week with vehicle or 30 mg/kg compound 22. Tumor size was measured every three to four days and mice were sacrificed once vehicle tumors reached 2000 mm^3. Error bar is SEM. Dosing started at day 17 post tumor inoculation. (B): Provided technologies can reduce KAT2A and KAT2B levels and histone acetylation levels. […] Vehicle is DMSO. […] Cell count data relative to DMSO control after 8 days of treatment with compound 22 are presented as examples to confirm inhibition. GI50=6 nM. (D): Provided technologies can inhibit tumor growth in vivo. Nude balb/c mice inoculated with H1048 tumors were dosed intraperitoneally once per week (qw i.p.) with vehicle (HbCD) or compound 22. Average tumor volumes+/−SEM from 6 mice are represented. […] See also (A). […] Certain body weights relative to starting weight are presented as examples to confirm tolerability and safety. (F): Provided technologies can reduce KAT2A and KAT2B levels and histone acetylation levels in tumor in vivo. […]

NCI-H1876 cells = assay: Cell growth inhibition, SCLC cell line NCI-H1876 (cell count, day 10); conditions: 240 h; NCI-H1876, day 10, cell count
Excerpt: as §1
SCLC: SCLC cell lines NCI-H1048 and NCI-H1876 were cultured in DMEM F12 media with 5% FBS, 1% Penicillin/Streptomycin and HITES supplement (Hydrocortisone, Insulin, Transferrin, Estradiol and Sodium Selenite). NCI-H1048 cells were plated at 10,000 cells/well of a 24-well plate and NCI-H1876 cells were plated at 20,000 cells/well of a 96-well plate. Compound and media were replenished every two days out to day 11 and 10 respectively. Cells were then trypsinized and counted using either hemocytometer or an automated Countess cell counter.

**Q.** How did the monocytic differentiation (CD86; CD86 flow cytometry at 48 hours) turn out when CN1C[C@H](Nc2cnn(C)c(=O)c2Br)C[C@H](c2ccc(C(=O)N3CCC(CN4CCN(c5ccc6c(c5)CN(C5CCC(=O)NC5=O)C6=O)CC4)CC3)cc2)C1 (stereo partly drawn) [Compound 22, 3-(5-(4-((1-(4-((3R,5R)-5-((5-bromo-1-methyl-6-oxo-1,6-dihydropyridazin-4-yl)amino)-1-methylpiperidin-3-yl)benzoyl)piperidin-4-yl)methyl)piperazin-1-yl)-1-oxoisoindolin-2-yl)piperidine-2,6-dione] was run?
**A.** monocytic differentiation was observed

**Q.** And the EC50 (CD86; Homo sapiens, flow cytometry at 48 hours)?
**A.** 0.3 nM

**Q.** And the “histone acetylation (e.g., AcH3K9) levels” value [1]?
**A.** reduce histone acetylation (e.g., AcH3K9) levels

**Q.** What about the GI50 (MOLM-13 cells; 168 h, MOLM-13, day 7, CyQuant, read-out: MOLM13 GI50) of the same molecule?
**A.** 2.9 nM

**Q.** What about the GI50 (MOLM-13 cells; MOLM-13, comparison table with Ref-1, read-out: Growth GI50) of the same molecule?
**A.** 1.2 nM

**Q.** And the cell growth (MOLM-13 cells; MOLM-13 cells, FIG. 2)?
**A.** inhibit cell growth

**Q.** What about the “reduction of KAT2B level” value (KAT2B) of the same molecule?
**A.** confirm such reduction

**Q.** And the GI50 (NCI-H1876 cells)?
**A.** 1 nM
